Experimental data as given in paper PMC10175918 (Communications Biology, 2023).
Like-named read-outs stand apart in the source and are kept apart here.

How the values were obtained:
Test in all cases: TGFα-shedding assay-based GPCR screening with chimeric Gα subunit proteins
Assay type in all cases: cell-based
348 GPCRs [1] = biological target: 348 GPCRs (Homo sapiens, UniProt P32745); conditions: 10µM, Favipiravir 100μM
348 GPCRs [2] = biological target: T1, 348 GPCRs (Homo sapiens, UniProt Q5T601)
T1 construct: expressed in transfected cells; host or cells: HEK293A
T1 sequence (Q5T601 20-910): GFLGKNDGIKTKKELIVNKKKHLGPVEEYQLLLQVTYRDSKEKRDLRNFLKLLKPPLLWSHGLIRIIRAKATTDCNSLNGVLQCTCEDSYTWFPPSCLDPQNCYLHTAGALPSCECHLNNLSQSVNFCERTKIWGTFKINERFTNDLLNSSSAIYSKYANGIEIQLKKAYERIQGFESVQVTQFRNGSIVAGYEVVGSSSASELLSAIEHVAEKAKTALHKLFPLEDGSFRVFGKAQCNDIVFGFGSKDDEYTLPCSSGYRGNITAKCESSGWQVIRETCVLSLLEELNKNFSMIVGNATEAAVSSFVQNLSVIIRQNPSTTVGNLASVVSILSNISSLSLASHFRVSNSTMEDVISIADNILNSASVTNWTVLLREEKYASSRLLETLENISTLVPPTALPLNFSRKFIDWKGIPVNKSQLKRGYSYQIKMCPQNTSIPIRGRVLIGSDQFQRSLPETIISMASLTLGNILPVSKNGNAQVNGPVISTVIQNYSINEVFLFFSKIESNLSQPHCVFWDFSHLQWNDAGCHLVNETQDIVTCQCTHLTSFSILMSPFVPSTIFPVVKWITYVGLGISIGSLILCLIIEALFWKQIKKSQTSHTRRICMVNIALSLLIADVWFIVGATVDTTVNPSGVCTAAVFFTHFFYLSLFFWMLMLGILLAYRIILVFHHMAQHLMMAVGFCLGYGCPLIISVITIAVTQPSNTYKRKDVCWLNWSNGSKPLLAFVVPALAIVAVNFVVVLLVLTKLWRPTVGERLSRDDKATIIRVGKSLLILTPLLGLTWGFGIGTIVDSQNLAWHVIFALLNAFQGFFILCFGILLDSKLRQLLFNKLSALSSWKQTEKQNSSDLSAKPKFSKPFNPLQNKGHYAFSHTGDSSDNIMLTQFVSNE

348 GPCRs [3] = biological target: T2, 348 GPCRs (Homo sapiens, UniProt Q9HC97); conditions: 10µM, Favipiravir 100μM
T2 construct: expressed in transfected cells; host or cells: HEK293A
T2 sequence (Q9HC97 whole entry): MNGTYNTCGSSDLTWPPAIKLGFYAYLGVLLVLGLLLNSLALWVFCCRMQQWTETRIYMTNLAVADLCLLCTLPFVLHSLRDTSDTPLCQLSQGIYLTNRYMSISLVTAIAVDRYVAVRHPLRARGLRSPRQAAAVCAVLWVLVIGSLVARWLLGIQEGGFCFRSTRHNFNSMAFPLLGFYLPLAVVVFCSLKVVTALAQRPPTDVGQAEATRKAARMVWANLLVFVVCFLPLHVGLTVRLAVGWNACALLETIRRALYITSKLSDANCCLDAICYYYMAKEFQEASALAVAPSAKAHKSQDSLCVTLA

348 GPCRs [4] = biological target: T3, 348 GPCRs (Homo sapiens, UniProt Q86Y34); conditions: 10µM, Favipiravir 100μM
T3 construct: expressed in transfected cells; host or cells: HEK293A
T3 sequence (Q86Y34 21-549): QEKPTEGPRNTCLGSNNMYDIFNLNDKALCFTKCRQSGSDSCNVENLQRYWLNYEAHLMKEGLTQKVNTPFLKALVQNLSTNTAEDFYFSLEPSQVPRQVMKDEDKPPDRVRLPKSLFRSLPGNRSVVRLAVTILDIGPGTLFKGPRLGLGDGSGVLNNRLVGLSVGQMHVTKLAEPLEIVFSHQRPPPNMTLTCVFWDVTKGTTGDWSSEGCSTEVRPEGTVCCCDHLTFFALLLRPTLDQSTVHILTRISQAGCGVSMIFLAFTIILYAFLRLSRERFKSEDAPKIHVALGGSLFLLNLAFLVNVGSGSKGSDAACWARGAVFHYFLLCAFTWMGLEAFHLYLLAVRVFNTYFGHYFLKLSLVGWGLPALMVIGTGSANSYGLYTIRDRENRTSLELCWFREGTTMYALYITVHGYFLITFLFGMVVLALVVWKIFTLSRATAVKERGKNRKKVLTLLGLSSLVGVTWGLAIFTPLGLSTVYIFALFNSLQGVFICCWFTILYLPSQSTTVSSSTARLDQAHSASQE

348 GPCRs [5] = biological target: T4, 348 GPCRs (Homo sapiens, UniProt O60883); conditions: 10µM, Favipiravir 100μM
T4 construct: expressed in transfected cells; host or cells: HEK293A
T4 sequence (O60883 26-481): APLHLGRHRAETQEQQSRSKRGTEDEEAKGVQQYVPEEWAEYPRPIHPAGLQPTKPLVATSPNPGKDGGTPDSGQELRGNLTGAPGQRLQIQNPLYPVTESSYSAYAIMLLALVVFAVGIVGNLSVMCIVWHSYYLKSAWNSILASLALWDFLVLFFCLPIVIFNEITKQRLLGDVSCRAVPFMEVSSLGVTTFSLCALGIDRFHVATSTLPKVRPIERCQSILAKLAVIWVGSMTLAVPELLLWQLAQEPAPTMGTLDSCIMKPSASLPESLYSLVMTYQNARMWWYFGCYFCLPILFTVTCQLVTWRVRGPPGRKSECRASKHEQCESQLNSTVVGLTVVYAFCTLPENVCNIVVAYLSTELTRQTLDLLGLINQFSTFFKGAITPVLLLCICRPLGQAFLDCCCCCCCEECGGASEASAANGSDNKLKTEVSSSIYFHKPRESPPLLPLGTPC

348 GPCRs [6] = biological target: T5, 348 GPCRs (Homo sapiens, UniProt Q92633); conditions: 10µM, Favipiravir 100μM
T5 construct: expressed in transfected cells; host or cells: HEK293A
T5 sequence (Q92633 whole entry): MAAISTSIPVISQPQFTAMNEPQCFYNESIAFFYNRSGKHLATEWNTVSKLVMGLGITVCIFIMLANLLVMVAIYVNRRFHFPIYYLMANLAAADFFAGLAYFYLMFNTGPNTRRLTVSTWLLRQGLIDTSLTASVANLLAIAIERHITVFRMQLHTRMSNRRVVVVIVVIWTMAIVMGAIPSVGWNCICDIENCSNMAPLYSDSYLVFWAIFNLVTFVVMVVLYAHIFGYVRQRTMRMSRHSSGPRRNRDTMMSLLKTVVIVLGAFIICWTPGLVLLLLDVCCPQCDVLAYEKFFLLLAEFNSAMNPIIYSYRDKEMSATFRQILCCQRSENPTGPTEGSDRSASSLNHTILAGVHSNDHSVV

348 GPCRs [7] = biological target: T6, 348 GPCRs (Homo sapiens, UniProt Q96RI8); conditions: 10µM, Favipiravir 100μM
T6 construct: expressed in transfected cells; host or cells: HEK293A
T6 sequence (Q96RI8 1-345): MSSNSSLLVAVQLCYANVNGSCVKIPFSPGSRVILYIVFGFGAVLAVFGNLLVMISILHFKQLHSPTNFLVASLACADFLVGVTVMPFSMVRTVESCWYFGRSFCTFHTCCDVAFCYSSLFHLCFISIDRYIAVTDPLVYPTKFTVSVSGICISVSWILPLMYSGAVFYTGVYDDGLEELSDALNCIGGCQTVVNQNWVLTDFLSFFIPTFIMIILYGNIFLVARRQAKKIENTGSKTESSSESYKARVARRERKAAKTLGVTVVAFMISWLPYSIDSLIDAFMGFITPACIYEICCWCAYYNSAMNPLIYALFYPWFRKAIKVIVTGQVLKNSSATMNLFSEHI

348 GPCRs [8] = biological target: T7, 348 GPCRs (Homo sapiens, UniProt Q7Z601); conditions: 10µM, Favipiravir 100μM
T7 construct: expressed in transfected cells; host or cells: HEK293A
T7 sequence (Q7Z601 1-462): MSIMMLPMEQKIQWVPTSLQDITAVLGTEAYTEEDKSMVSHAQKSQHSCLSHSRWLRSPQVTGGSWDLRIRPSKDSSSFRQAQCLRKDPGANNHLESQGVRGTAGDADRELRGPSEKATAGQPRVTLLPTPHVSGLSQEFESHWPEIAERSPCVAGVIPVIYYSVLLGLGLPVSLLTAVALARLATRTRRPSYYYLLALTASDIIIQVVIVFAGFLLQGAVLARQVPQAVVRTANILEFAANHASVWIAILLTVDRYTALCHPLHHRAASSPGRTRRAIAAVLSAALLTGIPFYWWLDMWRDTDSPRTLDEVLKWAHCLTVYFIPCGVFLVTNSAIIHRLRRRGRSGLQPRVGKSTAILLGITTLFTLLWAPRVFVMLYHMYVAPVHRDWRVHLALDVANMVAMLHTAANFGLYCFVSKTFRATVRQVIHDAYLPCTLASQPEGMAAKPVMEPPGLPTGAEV

[9] = read-out: % GPCR activation compared to TPA, SSTR3 (somatostatin receptor 3)
[10] = read-out: % GPCR activation compared to TPA, GPCR GPR110 (G-protein-coupled receptor 110 (ADGRF1))
[11] = read-out: % GPCR activation compared to TPA, GPR35 (G protein-coupled receptor 35)
[12] = read-out: % GPCR activation compared to TPA, GPR97 (Adhesion G Protein-Coupled Receptor G3 (ADGRG3))
[13] = read-out: % GPCR activation compared to TPA, GPR37L1 (G Protein-Coupled Receptor 37 Like 1)
[14] = read-out: % GPCR activation compared to TPA, LPAR1 (lysophosphatidic acid receptor 1)
[15] = read-out: % GPCR activation compared to TPA, TAAR6 (trace amine associated receptor 6)
[16] = read-out: % GPCR activation compared to TPA, GPR142 (G protein-coupled receptor 142)
[17] = SSTR3 (somatostatin receptor 3), read-out: % GPCR activation compared to TPA
[18] = GPCR GPR110 (G-protein-coupled receptor 110 (ADGRF1)), read-out: % GPCR activation compared to TPA
[19] = GPR35 (G protein-coupled receptor 35), read-out: % GPCR activation compared to TPA
[20] = GPR97 (Adhesion G Protein-Coupled Receptor G3 (ADGRG3)), read-out: % GPCR activation compared to TPA
[21] = GPR37L1 (G Protein-Coupled Receptor 37 Like 1), read-out: % GPCR activation compared to TPA
[22] = LPAR1 (lysophosphatidic acid receptor 1), read-out: % GPCR activation compared to TPA
[23] = TAAR6 (trace amine associated receptor 6), read-out: % GPCR activation compared to TPA
[24] = GPR142 (G protein-coupled receptor 142), read-out: % GPCR activation compared to TPA

Chain of 348 GPCRs (Homo sapiens, UniProt P32745) (P32745 whole entry): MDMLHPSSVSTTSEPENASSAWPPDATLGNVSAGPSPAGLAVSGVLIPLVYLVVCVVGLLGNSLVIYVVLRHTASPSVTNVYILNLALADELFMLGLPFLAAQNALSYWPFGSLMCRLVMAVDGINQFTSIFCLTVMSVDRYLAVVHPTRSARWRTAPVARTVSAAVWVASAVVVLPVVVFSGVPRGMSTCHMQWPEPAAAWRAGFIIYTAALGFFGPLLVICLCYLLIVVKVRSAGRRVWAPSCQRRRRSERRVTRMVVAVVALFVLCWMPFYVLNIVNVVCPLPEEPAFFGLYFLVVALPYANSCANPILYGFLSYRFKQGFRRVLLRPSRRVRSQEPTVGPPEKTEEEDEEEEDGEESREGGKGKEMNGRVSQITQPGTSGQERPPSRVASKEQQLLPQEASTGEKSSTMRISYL

Row | Structure (SMILES) | activation at 10 µM (348 GPCRs [1]; [9]) | activation at 10 µM (348 GPCRs [2]; [10]) | activation at 10 µM (348 GPCRs [3]; [11]) | activation at 100 µM (348 GPCRs [4]; [12]) | activation at 10 µM (348 GPCRs [5]; [13]) | activation at 10 µM (348 GPCRs [6]; [14]) | activation at 100 µM (348 GPCRs [7]; [15]) | activation at 100 µM (348 GPCRs [8]; [16]) | activation at 10 µM (348 GPCRs [1]; [17]) | activation at 10 µM (348 GPCRs [2]; [18]) | activation at 10 µM (348 GPCRs [3]; [19]) | activation at 100 µM (348 GPCRs [4]; [20]) | activation at 10 µM (348 GPCRs [5]; [21]) | activation at 10 µM (348 GPCRs [6]; [22]) | activation at 100 µM (348 GPCRs [7]; [23]) | activation at 100 µM (348 GPCRs [8]; [24]) | activation at 100 µM (348 GPCRs [2]; GPCR GPR110 (G-protein-coupled receptor 110 (ADGRF1)), 100μM, read-out: % GPCR activation compared to TPA)
1 | CC(C)OC(=O)[C@H](C)N[P@](=O)(OC[C@H]1O[C@@H](n2ccc(=O)[nH]c2=O)[C@](C)(F)[C@@H]1O)Oc1ccccc1 [sofosbuvir] | -1.81% | 0.252% | -7.86% | -1.21% | -1.91% | 3.41% | -3.52% | 3.77% | – | – | – | – | – | – | – | – | –
2 | CC(C)C(=O)OC[C@H]1O[C@@H](n2ccc(NO)nc2=O)[C@H](O)[C@@H]1O [molnupiravir] | – | – | – | – | – | – | – | – | -1.25% | -0.00488% | -3.01% | -1.08% | -1.63% | -1.42% | -2.31% | 2.63% | –
3 | NC(=O)c1nc(F)cnc1O [favipiravir, 6-fluoro-3-hydroxy-2-pyrazinecarboxamide] | – | – | – | – | – | – | – | – | 1.41% | – | 3% | -1.79% | -2.32% | 0.687% | -1.51% | -0.257% | -3.88%
4 | N#C[C@@]1(c2ccc3c(N)ncnn23)O[C@H](CO)[C@@H](O)[C@H]1O [GS441524] | – | – | – | – | – | – | – | – | 3.54% | -1.67% | 4.18% | -0.758% | -2.03% | 1.19% | -1.31% | 0.3% | –
5 | CCC(CC)COC(=O)[C@H](C)N[P@](=O)(OC[C@H]1O[C@@](C#N)(c2ccc3c(N)ncnn23)[C@H](O)[C@@H]1O)Oc1ccccc1 [remdesivir] | 3.89% | -1.5% | 0.537% | -1.74% | -2.18% | 0.719% | -0.419% | 1.22% | – | – | – | – | – | – | – | – | –
